Source: ChEMBL document CHEMBL3112395, “Synthesis and structure-activity relationship studies of N-terminal analogues of the antimicrobial peptide tridecaptin A(1)” (J Med Chem, 2014)
Values after ≈ are worked out from the molar mass of the structure shown.

Columns and labels:
Format in all cases: functional
Enterococcus faecium = assay: Antibacterial activity against Enterococcus faecium ATCC 19434 assessed as growth inhibition by broth dilution method
Listeria monocytogenes = assay: Antibacterial activity against Listeria monocytogenes ATCC […] assessed as growth inhibition by broth dilution method
Staphylococcus aureus = assay: Antibacterial activity against Staphylococcus aureus ATCC 29213 assessed as growth inhibition by broth dilution method
Enterococcus faecalis = assay: Antibacterial activity against Enterococcus faecalis ATCC 29212 assessed as growth inhibition by broth dilution method
Acinetobacter baumannii = assay: Antibacterial activity against Acinetobacter baumannii ATCC 19606 assessed as growth inhibition by broth dilution method
Klebsiella pneumoniae = assay: Antibacterial activity against Klebsiella pneumoniae ATCC 13883 assessed as growth inhibition by broth dilution method
Campylobacter jejuni = assay: Antibacterial activity against Campylobacter jejuni NCTC 11168 assessed as growth inhibition by broth dilution method
Salmonella enterica = assay: Antibacterial activity against Salmonella enterica ATCC 13311 assessed as growth inhibition by broth dilution method
Pseudomonas aeruginosa = assay: Antibacterial activity against Pseudomonas aeruginosa ATCC 27853 assessed as growth inhibition by broth dilution method
Escherichia coli = assay: Antibacterial activity against Escherichia coli ATCC 25922 assessed as growth inhibition by broth dilution method

| Compound | MIC (Enterococcus faecium) [µg/mL] | MIC (Listeria monocytogenes) [µg/mL] | MIC (Staphylococcus aureus) [µg/mL] | MIC (Enterococcus faecalis) [µg/mL] | MIC (Acinetobacter baumannii) [µg/mL] | MIC (Klebsiella pneumoniae) [µg/mL] | MIC (Campylobacter jejuni) [µg/mL] | MIC (Salmonella enterica) [µg/mL] | MIC (Pseudomonas aeruginosa) [µg/mL] | MIC (Escherichia coli) [µg/mL] |
| --- | --- | --- | --- | --- | --- | --- | --- | --- | --- | --- |
| CC[C@H](C)CC[C@H](O)CC(=O)N[C@@H](C(=O)N[C@H](CCN)C(=O)NCC(=O)N[C@H](CO)C(=O)N[C@H](Cc1c[nH]c2ccccc12)C(=O)N[C@@H](CO)C(=O)N[C@@H](CCN)C(=O)N[C@H](CCN)C(=O)N[C@@H](Cc1ccccc1)C(=O)N[C@@H](CCC(=O)O)C(=O)N[C@H](C(=O)N[C@@H](C(=O)N[C@@H](C)C(=O)O)[C@@H](C)CC)C(C)C)C(C)C | > 100 | 100 (≈ 64.5 µM) | > 100 | > 100 | 25 (≈ 16.1 µM) | 6.25 (≈ 4.03 µM) | 1.56 (≈ 1.01 µM) | 6.25 (≈ 4.03 µM) | 50 (≈ 32.2 µM) | 6.25 (≈ 4.03 µM) |
| CC[C@@H](C)CC[C@H](O)CC(=O)N[C@@H](C(=O)N[C@H](CCN)C(=O)NCC(=O)N[C@H](CO)C(=O)N[C@H](Cc1c[nH]c2ccccc12)C(=O)N[C@@H](CO)C(=O)N[C@@H](CCN)C(=O)N[C@H](CCN)C(=O)N[C@@H](Cc1ccccc1)C(=O)N[C@@H](CCC(=O)O)C(=O)N[C@H](C(=O)N[C@@H](C(=O)N[C@@H](C)C(=O)O)[C@@H](C)CC)C(C)C)C(C)C | > 100 | > 100 | > 100 | > 100 | 50 (≈ 32.2 µM) | 12.5 (≈ 8.06 µM) | 3.13 (≈ 2.02 µM) | 25 (≈ 16.1 µM) | 100 (≈ 64.5 µM) | 12.5 (≈ 8.06 µM) |
| CC[C@H](C)[C@@H](NC(=O)[C@@H](NC(=O)[C@H](CCC(=O)O)NC(=O)[C@H](Cc1ccccc1)NC(=O)[C@@H](CCN)NC(=O)[C@H](CCN)NC(=O)[C@H](CO)NC(=O)[C@@H](Cc1c[nH]c2ccccc12)NC(=O)[C@@H](CO)NC(=O)CNC(=O)[C@@H](CCN)NC(=O)[C@H](NC(C)=O)C(C)C)C(C)C)C(=O)N[C@@H](C)C(=O)O | > 100 | > 100 | > 100 | > 100 | > 100 | 50 (≈ 34.8 µM) | 100 (≈ 69.6 µM) | 100 (≈ 69.6 µM) | > 100 | 50 (≈ 34.8 µM) |
| CCCCCC(=O)N[C@@H](C(=O)N[C@H](CCN)C(=O)NCC(=O)N[C@H](CO)C(=O)N[C@H](Cc1c[nH]c2ccccc12)C(=O)N[C@@H](CO)C(=O)N[C@@H](CCN)C(=O)N[C@H](CCN)C(=O)N[C@@H](Cc1ccccc1)C(=O)N[C@@H](CCC(=O)O)C(=O)N[C@H](C(=O)N[C@@H](C(=O)N[C@@H](C)C(=O)O)[C@@H](C)CC)C(C)C)C(C)C | > 100 | 100 (≈ 67 µM) | > 100 | > 100 | 25 (≈ 16.7 µM) | 3.13 (≈ 2.1 µM) | 3.13 (≈ 2.1 µM) | 6.25 (≈ 4.19 µM) | 50 (≈ 33.5 µM) | 3.13 (≈ 2.1 µM) |
| CCCCCCC(=O)N[C@@H](C(=O)N[C@H](CCN)C(=O)NCC(=O)N[C@H](CO)C(=O)N[C@H](Cc1c[nH]c2ccccc12)C(=O)N[C@@H](CO)C(=O)N[C@@H](CCN)C(=O)N[C@H](CCN)C(=O)N[C@@H](Cc1ccccc1)C(=O)N[C@@H](CCC(=O)O)C(=O)N[C@H](C(=O)N[C@@H](C(=O)N[C@@H](C)C(=O)O)[C@@H](C)CC)C(C)C)C(C)C | > 100 | 50 (≈ 33.2 µM) | > 100 | > 100 | 12.5 (≈ 8.3 µM) | 6.25 (≈ 4.15 µM) | 1.56 (≈ 1.04 µM) | 12.5 (≈ 8.3 µM) | 50 (≈ 33.2 µM) | 6.25 (≈ 4.15 µM) |
| CCCCCCCCC(=O)N[C@@H](C(=O)N[C@H](CCN)C(=O)NCC(=O)N[C@H](CO)C(=O)N[C@H](Cc1c[nH]c2ccccc12)C(=O)N[C@@H](CO)C(=O)N[C@@H](CCN)C(=O)N[C@H](CCN)C(=O)N[C@@H](Cc1ccccc1)C(=O)N[C@@H](CCC(=O)O)C(=O)N[C@H](C(=O)N[C@@H](C(=O)N[C@@H](C)C(=O)O)[C@@H](C)CC)C(C)C)C(C)C | 100 (≈ 65.2 µM) | 25 (≈ 16.3 µM) | 100 (≈ 65.2 µM) | 100 (≈ 65.2 µM) | 50 (≈ 32.6 µM) | 12.5 (≈ 8.14 µM) | 0.78 (≈ 0.508 µM) | 6.25 (≈ 4.07 µM) | 100 (≈ 65.2 µM) | 12.5 (≈ 8.14 µM) |
| CCCCCCCCCC(=O)N[C@@H](C(=O)N[C@H](CCN)C(=O)NCC(=O)N[C@H](CO)C(=O)N[C@H](Cc1c[nH]c2ccccc12)C(=O)N[C@@H](CO)C(=O)N[C@@H](CCN)C(=O)N[C@H](CCN)C(=O)N[C@@H](Cc1ccccc1)C(=O)N[C@@H](CCC(=O)O)C(=O)N[C@H](C(=O)N[C@@H](C(=O)N[C@@H](C)C(=O)O)[C@@H](C)CC)C(C)C)C(C)C | 100 (≈ 64.6 µM) | 25 (≈ 16.1 µM) | > 100 | > 100 | 12.5 (≈ 8.07 µM) | 6.25 (≈ 4.04 µM) | 0.4 (≈ 0.258 µM) | 12.5 (≈ 8.07 µM) | > 100 | 6.25 (≈ 4.04 µM) |
| CCCCCCCCCCC(=O)N[C@@H](C(=O)N[C@H](CCN)C(=O)NCC(=O)N[C@H](CO)C(=O)N[C@H](Cc1c[nH]c2ccccc12)C(=O)N[C@@H](CO)C(=O)N[C@@H](CCN)C(=O)N[C@H](CCN)C(=O)N[C@@H](Cc1ccccc1)C(=O)N[C@@H](CCC(=O)O)C(=O)N[C@H](C(=O)N[C@@H](C(=O)N[C@@H](C)C(=O)O)[C@@H](C)CC)C(C)C)C(C)C | 100 (≈ 64 µM) | 25 (≈ 16 µM) | > 100 | > 100 | 12.5 (≈ 8 µM) | 6.25 (≈ 4 µM) | 0.4 (≈ 0.256 µM) | 12.5 (≈ 8 µM) | > 100 | 6.25 (≈ 4 µM) |
| CCCCCCCCCCCCCC(=O)N[C@@H](C(=O)N[C@H](CCN)C(=O)NCC(=O)N[C@H](CO)C(=O)N[C@H](Cc1c[nH]c2ccccc12)C(=O)N[C@@H](CO)C(=O)N[C@@H](CCN)C(=O)N[C@H](CCN)C(=O)N[C@@H](Cc1ccccc1)C(=O)N[C@@H](CCC(=O)O)C(=O)N[C@H](C(=O)N[C@@H](C(=O)N[C@@H](C)C(=O)O)[C@@H](C)CC)C(C)C)C(C)C | > 100 | > 100 | > 100 | > 100 | > 100 | > 100 | 12.5 (≈ 7.79 µM) | > 100 | > 100 | > 100 |
| CCCCCCCCCCCCCCCC(=O)N[C@@H](C(=O)N[C@H](CCN)C(=O)NCC(=O)N[C@H](CO)C(=O)N[C@H](Cc1c[nH]c2ccccc12)C(=O)N[C@@H](CO)C(=O)N[C@@H](CCN)C(=O)N[C@H](CCN)C(=O)N[C@@H](Cc1ccccc1)C(=O)N[C@@H](CCC(=O)O)C(=O)N[C@H](C(=O)N[C@@H](C(=O)N[C@@H](C)C(=O)O)[C@@H](C)CC)C(C)C)C(C)C | > 100 | > 100 | > 100 | > 100 | > 100 | > 100 | 50 (≈ 30.6 µM) | > 100 | > 100 | > 100 |
| CC[C@H](C)[C@@H](NC(=O)[C@@H](NC(=O)[C@H](CCC(=O)O)NC(=O)[C@H](Cc1ccccc1)NC(=O)[C@@H](CCN)NC(=O)[C@H](CCN)NC(=O)[C@H](CO)NC(=O)[C@@H](Cc1c[nH]c2ccccc12)NC(=O)[C@@H](CO)NC(=O)CNC(=O)[C@@H](CCN)NC(=O)[C@H](NC(=O)CCC1c2ccccc2-c2ccccc21)C(C)C)C(C)C)C(=O)N[C@@H](C)C(=O)O | > 100 | 100 (≈ 61.9 µM) | > 100 | > 100 | > 100 | 100 (≈ 61.9 µM) | 1.56 (≈ 0.966 µM) | > 100 | > 100 | 6.25 (≈ 3.87 µM) |
| CC[C@H](C)[C@@H](NC(=O)[C@@H](NC(=O)[C@H](CCC(=O)O)NC(=O)[C@H](Cc1ccccc1)NC(=O)[C@@H](CCN)NC(=O)[C@H](CCN)NC(=O)[C@H](CO)NC(=O)[C@@H](Cc1c[nH]c2ccccc12)NC(=O)[C@@H](CO)NC(=O)CNC(=O)[C@@H](CCN)NC(=O)[C@H](NC(=O)CCc1c2ccccc2cc2ccccc12)C(C)C)C(C)C)C(=O)N[C@@H](C)C(=O)O | > 100 | 50 (≈ 30.7 µM) | > 100 | > 100 | 25 (≈ 15.4 µM) | 12.5 (≈ 7.68 µM) | 1.56 (≈ 0.959 µM) | 12.5 (≈ 7.68 µM) | > 100 | 6.25 (≈ 3.84 µM) |
| CC[C@H](C)[C@@H](NC(=O)[C@@H](NC(=O)[C@H](CCC(=O)O)NC(=O)[C@H](Cc1ccccc1)NC(=O)[C@@H](CCN)NC(=O)[C@H](CCN)NC(=O)[C@H](CO)NC(=O)[C@@H](Cc1c[nH]c2ccccc12)NC(=O)[C@@H](CO)NC(=O)CNC(=O)[C@@H](CCN)NC(=O)[C@H](NC(=O)CC12CC3CC(CC(C3)C1)C2)C(C)C)C(C)C)C(=O)N[C@@H](C)C(=O)O | 50 (≈ 31.8 µM) | 25 (≈ 15.9 µM) | 50 (≈ 31.8 µM) | 50 (≈ 31.8 µM) | 12.5 (≈ 7.96 µM) | 12.5 (≈ 7.96 µM) | 1.56 (≈ 0.993 µM) | 6.25 (≈ 3.98 µM) | 50 (≈ 31.8 µM) | 6.25 (≈ 3.98 µM) |
| CC[C@H](C)[C@@H](NC(=O)[C@@H](NC(=O)[C@H](CCC(=O)O)NC(=O)[C@H](Cc1ccccc1)NC(=O)[C@@H](CCN)NC(=O)[C@H](CCN)NC(=O)[C@H](CO)NC(=O)[C@@H](Cc1c[nH]c2ccccc12)NC(=O)[C@@H](CO)NC(=O)CNC(=O)[C@@H](CCN)NC(=O)[C@H](NC(=O)COCCOCCOC)C(C)C)C(C)C)C(=O)N[C@@H](C)C(=O)O | > 100 | > 100 | > 100 | > 100 | > 100 | > 100 | > 100 | > 100 | > 100 | > 100 |
| CC[C@H](C)[C@@H](NC(=O)[C@@H](NC(=O)[C@H](CCC(=O)O)NC(=O)[C@H](Cc1ccccc1)NC(=O)[C@@H](CCN)NC(=O)[C@H](CCN)NC(=O)[C@H](CO)NC(=O)[C@@H](Cc1c[nH]c2ccccc12)NC(=O)[C@@H](CO)NC(=O)CNC(=O)[C@@H](CCN)NC(=O)[C@H](NC(=O)CCCC[C@@H]1SC[C@@H]2NC(=O)N[C@@H]21)C(C)C)C(C)C)C(=O)N[C@@H](C)C(=O)O | > 100 | > 100 | > 100 | > 100 | > 100 | 50 (≈ 30.8 µM) | 50 (≈ 30.8 µM) | 50 (≈ 30.8 µM) | > 100 | 50 (≈ 30.8 µM) |
